# Measurements from US6486199B1, “Spiro and dispiro 1,2,4-trioxolane antimalarials” (Medicines for Malaria Venture MMV International Centre …, priority 2001, dated 2002).
# Experiments:
# [1] = differential scanning calorimetry (DSC), thermal stability; assay type: physicochemical; conditions: thermal decomposition
# [2] = test system: ANKA strain of P. Berghei; assay: single dose STI in vivo screen in infected Moro SPF mice; conditions: for Activity (%) po / Activity (%) sc: percent reduction in parasitemia day 3 post-infection; for Activity (%) po / Survival (days) po: single 10 mg/kg po; for Activity (%) sc / Survival (days) sc: single 10 mg/kg sc; for antimalarial activity, overall assessment: overall judgement of in vitro and in vivo data of Table 2
# Description: In the single dose STI in vivo screen, Moro SPF mice infected with the ANKA strain of P. Berghei (groups of three mice) were treated on day one post-infection with trioxolanes dissolved or suspended in 3% ethanol and 7% Tween 80. […] Antimalarial activity was measured by percent redution in parasitemia on day three post-infection and survival times compared to an untreated control group. Survival to day 30 post-infection is considered to be a cure.
# P. berghei = assay: 1-day Peters test against P. berghei in vivo; conditions: 1 day, po
Compound,Tm dec. (° C.) [1] [°C],other results
"O=C1CC2CC(C1)CC1(C2)OOC2(O1)C1CC3CC(C1)CC2C3 (stereo not shown) [OZ13, Adamantane-2-spiro-3′-1′,2′,4′-trioxolane-5′-spiro-3″-7″-oxobicyclo[3.3.1]nonane]",170.1,–
"ON=C1CCC2(CC1)OOC1(O2)C2CC3CC(C2)CC1C3 (stereo not shown) [OZ16, Adamantane-2-spiro-3′-8′-hydroxyimino-1′,2′,4′-trioxaspiro[4.5]decane]",153.6,–
"CC1(C)CC(C)(C)CC2(C1)OOC1(O2)C2CC3CC(C2)CC1C3 (stereo not shown) [OZ26, Adamantane-2-spiro-3′-7′,9′-tetramethyl-1′,2′,4′-trioxaspiro[4.5]decane]",173.4,–
"CC(C)(C)ON=C1CCC2(CC1)OOC1(O2)C2CC3CC(C2)CC1C3 (stereo not shown) [OZ28, Adamantane-2-spiro-3′-8′-t-butyloxyimino-1′,2′,4′-trioxaspiro[4.5]decane]",162.4,–
"CC1(C)CCC2(CC1)OOC1(O2)C2CC3CC(C2)CC1C3 (stereo not shown) [OZ33, Adamantane-2-spiro-3′-8′,8′-dimethyl-1′,2′,4′-trioxaspiro[4.5]decane]",163.1,–
"c1ccc(C2(c3ccccc3)CCC3(CC2)OOC2(O3)C3CC4CC(C3)CC2C4)cc1 (stereo not shown) [OZ34, Adamantane-2-spiro-3′-8′,8′-diphenyl-1′,2′,4′-trioxaspiro[4.5]decane]",181.4,Activity (%) po [2]: 0/0%; Activity (%) sc [2]: 0/0%
"CC(C)(C)OC(=O)N1CCC2(CC1)OOC1(O2)C2CC3CC(C2)CC1C3 (stereo not shown) [OZ35, Adamantane-2-spiro-3′-8′-t-butoxycarbonyl-1′,2′,4′-trioxa-8′-azaspiro[4.5]decane]",159.4,–
"CON=C1CC2CC3(CC2C1)OOC1(O3)C2CC3CC(C2)CC1C3 (stereo not drawn) [OZ37, Adamantane-2-spiro-3′-1′,2′,4′-trioxolane-5′-spiro-3″-7″-methoxyimino-cis-bicyclo[3.3.0]octane]",151.2,–
"O=C1c2ccccc2C(=O)N1N=C1CCC2(CC1)OOC1(O2)C2CC3CC(C2)CC1C3 (stereo not shown) [OZ38, Adamantane-2-spiro-3′-8′-(N-phthalimido)imino-1′,2′,4′-trioxaspiro[4.5]decane]",165.1,–
"CC(C)C1CCC2(CC1)OOC1(O2)C2CC3CC(C2)CC1C3 (stereo not shown) [OZ40, Adamantane-2-spiro-3′-8′-isopropyl-1′,2′,4′-trioxaspiro[4.5]decane]",164.2,–
"Fc1ccc(C2CCC3(CC2)OOC2(O3)C3CC4CC(C3)CC2C4)cc1 (stereo not shown) [OZ41, Adamantane-2-spiro-3′-8′-(4′-fluorophenyl)-1′,2′,4′-trioxaspiro[4.5]decane]",159.0,P. berghei (1 day) ED50 po (P. berghei): 2.8 mg/kg; P. berghei (1 day) ED90 po (P. berghei): 5.1 mg/kg
"c1ccc(C2(c3ccccc3)OOC3(O2)C2CC4CC(C2)CC3C4)cc1 (stereo not shown) [OZ42, Adamantane-2-spiro-3′-5′,5′-diphenyl-1′,2′,4′-trioxolane]",159.1,–
"Fc1ccc(C2(c3ccc(F)cc3)OOC3(O2)C2CC4CC(C2)CC3C4)cc1 (stereo not shown) [OZ44, Adamantane-2-spiro-3′-5′, 5′-bis(4′-fluorophenyl)-1′,2′,4′-trioxolane]",157.5,–
"Fc1c(F)c(F)c(C2(c3c(F)c(F)c(F)c(F)c3F)OOC3(O2)C2CC4CC(C2)CC3C4)c(F)c1F (stereo not shown) [OZ45, Adamantane-2-spiro-3′-5′,5′-bis(2′,3′,4′,5′,6′-pentafluorophenyl)-5′,2′,4′-trioxolane]",133.7,–
"FC(F)(F)c1cccc(C2(c3cccc(C(F)(F)F)c3)OOC3(O2)C2CC4CC(C2)CC3C4)c1 (stereo not shown) [OZ46, Adamantane-2-spiro-3′-5′,5′-bis[3′-(trifluoromethyl)phenyl]-1′,2′,4′-trioxolane]",161.3,–
"Clc1ccc(C2CCC3(CC2)OOC2(O3)C3CC4CC(C3)CC2C4)cc1 (stereo not shown) [OZ47, Adamantane-2-spiro-3′-8′-(4′-chlorophenyl)-1′,2′,4′-trioxaspiro[4.5]decane]",159.3,–
"FC(F)(F)c1ccc(C2CCC3(CC2)OOC2(O3)C3CC4CC(C3)CC2C4)cc1 (stereo not shown) [OZ48, Adamantane-2-spiro-3′-8′-[4′-(trifluoromethyl)phenyl]-1′,2′,4′-trioxaspiro[4.5]decane]",156.1,–
"Cc1ccc(S(=O)(=O)N2CCC3(CC2)OOC2(O3)C3CC4CC(C3)CC2C4)cc1 (stereo not shown) [OZ51, Adamantane-2-spiro-3′-8′-(p-toluenesulfonyl)-1′,2′,4′-trioxa-8′-azaspiro[4.5]decane]",152.3,–

Compound,Tm dec. (° C.) [1] [°C],other results
"c1ccc(CC2(Cc3ccccc3)OOC3(O2)C2CC4CC(C2)CC3C4)cc1 (stereo not shown) [OZ52, Adamantane-2-spiro-3′-5′,5′-dibenzyl-1′,2′,4′-trioxolane]",154.9,–
"CCOC(=O)CCC(=O)N1CCC2(CC1)OOC1(O2)C2CC3CC(C2)CC1C3 (stereo not shown) [OZ53, Adamantane-2-spiro-3′-8′-[3′-(ethoxycarbonyl)propionyl]-1′,2′,4′-trioxa-8′-azaspiro[4.5]decane]",152.7,–
"O=C(O)CON=C1CCC2(CC1)OOC1(O2)C2CC3CC(C2)CC1C3 (stereo not shown) [OZ54, Adamantane-2-spiro-3′-8′-carboxymethoxyimino-1′,2′,4′-trioxaspiro[4.5]decane]",149.3,Survival (days) po [2]: 7.0/7.0 days; Survival (days) sc [2]: 7.0/7.0 days
"CS(=O)(=O)N1CCC2(CC1)OOC1(O2)C2CC3CC(C2)CC1C3 (stereo not shown) [OZ56, Adamantane-2-spiro-3′-8′-methanesulfonyl-1′,2′,4′-trioxa-8′-azaspiro[4.5]decane]",158.0,–
"O=S(=O)(c1ccc(Cl)cc1)N1CCC2(CC1)OOC1(O2)C2CC3CC(C2)CC1C3 (stereo not shown) [OZ57, Adamantane-2-spiro-3′-8′-(4′-chlorobenzenesulfonyl)-1′,2′,4′-trioxa-8′-azaspiro[4.5]decane]",158.0,–
"O=C(O)CCC(=O)N1CCC2(CC1)OOC1(O2)C2CC3CC(C2)CC1C3 (stereo not shown) [OZ58, Adamantane-2-spiro-3′-8′-(3′-carboxypropionyl)-1′,2′,4′-trioxa-8′-azaspiro[4.5]decane]",147.0,–
"COc1ccc(S(=O)(=O)N2CCC3(CC2)OOC2(O3)C3CC4CC(C3)CC2C4)cc1 (stereo not shown) [OZ59, Adamantane-2-spiro-3′-8′-(4′-methoxybenzenesulfonyl)-1′,2′,4′-trioxa-8′-azaspiro[4.5]decane]",152.2,–
"O=S(=O)(c1ccccc1)N1CCC2(CC1)OOC1(O2)C2CC3CC(C2)CC1C3 (stereo not shown) [OZ60, Adamantane-2-spiro-3′-8′-benzenesulfonyl-1′, 2′,4′-trioxa-8′-azaspiro[4.5]decane]",152.6,–
"N#CC1(c2ccccc2)CCC2(CC1)OOC1(O2)C2CC3CC(C2)CC1C3 (stereo not shown) [OZ63, Adamantane-2-spiro-3′-8′-cyano-8′-phenyl-1′,2′,4′-trioxaspiro[4.5]decane]",158.3,–
"CC(C)(C)COC(=O)C1CCC2(CC1)OOC1(O2)C2CC3CC(C2)CC1C3 (stereo not shown) [OZ64, Adamantane-2-spiro-3′-8′-neopentyloxycarbonyl-1′,2′,4′-trioxaspiro[4.5]decane]",163.8,–
"c1ccc(C2CCC3(CC2)OOC2(O3)C3CCCC2CCC3)cc1 (stereo not shown) [OZ67, Bicyclo[3.3.1]nonane-9-spiro-3′-8′-phenyl-1′,2′,4′-trioxaspiro[4.5]decane]",162.3,"antimalarial activity, overall assessment [2]: completely inactive; Activity (%) po [2]: 0/0%; Activity (%) sc [2]: 0/0%; Survival (days) po [2]: 5.0/5.0 days; Survival (days) sc [2]: 5.0/5.0 days"
"CC1(C)COC2(CCC3(CC2)OOC2(O3)C3CCCC2CCC3)OC1 (stereo not shown) [OZ68, Bicyclo[3.3.1]nonane-9-spiro-3′-11′,11′-dimethyl-1′,2′,4′,9′,13′-pentaoxadispiro[4.2.5.2]pentadecane]",163.1,"antimalarial activity, overall assessment [2]: similarly inactive"
"CC(=O)OC1(c2ccc(F)cc2)CCC2(CC1)OOC1(O2)C2CC3CC(C2)CC1C3 (stereo not shown) [OZ69, Adamantane-2-spiro-3′-8′-acetoxy-8′-(4′-fluorophenyl)-1′,2′,4′-trioxaspiro[4.5]decane]",164.1,Survival (days) po [2]: 6.3/6.3 days; Survival (days) sc [2]: 6.3/6.3 days
"CCN(CC)C(=O)C1CCC2(CC1)OOC1(O2)C2CC3CC(C2)CC1C3 (stereo not shown) [OZ73, Adamantane-2-spiro-3′-8′-diethylaminocarbonyl-1′,2′,4′-trioxaspiro[4.5] decane]",160.2,"antimalarial activity, overall assessment [2]: only weakly active"
"O=C(OC1CCC2(CC1)OOC1(O2)C2CC3CC(C2)CC1C3)c1ccccc1 (stereo not shown) [OZ74, Adamantane-2-spiro-3′-8′-benzoyloxy-1′,2′,4′-trioxaspiro[4.5]decane]",161.2,–
"N#CC1(c2ccc(Cl)c(Cl)c2)CCC2(CC1)OOC1(O2)C2CC3CC(C2)CC1C3 (stereo not shown) [OZ75, Adamantane-2-spiro-3′-8′-cyano-8′-(3′,4′-dichlorophenyl)-1′,2′,4′-trioxaspiro[4.5]decane]",159.1,–
"OC1(c2ccc(F)cc2)CCC2(CC1)OOC1(O2)C2CC3CC(C2)CC1C3 (stereo not shown) [OZ76, Adamantane-2-spiro-3′-8′-(4′-fluorophenyl)-8′-hydroxy-1′,2′,4′-trioxaspiro[4.5]decane]",149.6,–
"COC1(c2ccc(F)cc2)CCC2(CC1)OOC1(O2)C2CC3CC(C2)CC1C3 (stereo not shown) [OZ77, Adamantane-2-spiro-3′-8′-(4′-fluorophenyl)-8′-methoxy-1′,2′,4′-trioxaspiro[4.5]decane]",161.3,"antimalarial activity, overall assessment [2]: excellent activity"
